Source: publication PMC5613217 (Biochemistry and Biophysics Reports, 2017)

Experiments:
[1] = biological target: T1, MtbNei2 (Rv3297) (Mycobacterium tuberculosis, UniProt P9WNC1); assay: In vitro inhibition of AP site cleavage; assay type: biochemical; details: for Inhibition of AP site cleavage activity (in words): 50-800 µM inhibitor, 80 nM MtbNei2
T1 sequence (P9WNC1 1-255): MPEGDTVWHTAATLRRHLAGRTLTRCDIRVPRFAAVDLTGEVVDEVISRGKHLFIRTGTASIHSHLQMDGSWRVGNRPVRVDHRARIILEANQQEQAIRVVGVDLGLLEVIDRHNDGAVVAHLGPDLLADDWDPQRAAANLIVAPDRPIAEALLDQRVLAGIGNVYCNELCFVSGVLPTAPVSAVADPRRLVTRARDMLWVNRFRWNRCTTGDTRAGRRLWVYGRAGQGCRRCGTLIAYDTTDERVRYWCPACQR

[2] = biological target: T1, MtbNei2 (Rv3297); assay: In vitro inhibition of Uracil DNA glycosylase activity of MtbNei2; assay type: biochemical; details: for Inhibition of Uracil DNA glycosylase activity (in words): 50-800 µM inhibitor, 80 nM MtbNei2

SMILES | IC50 [1] [µM] | Inhibition of AP site cleavage activity (in words) [1] | IC50 [2] [µM] | Inhibition of Uracil DNA glycosylase activity (in words) [2]
COc1c2c(cc3c1[C@@H]1Oc4c(ccc(O)c4CC=C(C)C)[C@@H]1CO3)OC(C)(C)C=C2 [NSC250430, Gangetin] | 43.6 | good inhibition | 76.2 | good inhibition
C[C@H]1Oc2cc3c(-c4c(O)cc(O)c5c(O)c6c(cc45)O[C@H](C)[C@@H](C)C6=O)c(O)cc(O)c3c(O)c2C(=O)[C@@H]1C [NSC345647, Chaetochromin] | 84.7 | good inhibition | 92.7 | good inhibition
